Holding throughout (experiment): relative viability (nuclei count vs DMSO), 5 days (fraction); higher = more cells survive
Compound in test [1]: O=c1[nH]cc(F)c(=O)[nH]1 [5-Fluorouracil] + Cc1nc(Nc2ncc(C(=O)Nc3c(C)cccc3Cl)s2)cc(N2CCN(CCO)CC2)n1 [Dasatinib] (partner 0.075 µM)
Summed up: (§1)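 Lung cancer cell lines, seeded in 1536-well plates, were treated the following day by pin tool with a single drug or with five library-drug doses (not always all listed) in √10 steps on top of a fixed anchor-drug dose. Cells were fixed and nuclei stained in one step after 5 days, and nuclei were counted. Relative viability is the nuclei count for treated wells divided by that for vehicle wells, reported as medians of duplicate plates.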

Compound in test [2]: O=c1[nH]cc(F)c(=O)[nH]1 [5-Fluorouracil] + CC1(C)CCC(c2ccc(Cl)cc2)=C(CN2CCN(c3ccc(C(=O)NS(=O)(=O)c4ccc(N[C@H](CCN5CCOCC5)CSc5ccccc5)c(S(=O)(=O)C(F)(F)F)c4)cc3)CC2)C1 [Navitoclax] (partner 0.5 µM)
In outline:
as §1

Compound in test [3]: O=c1[nH]cc(F)c(=O)[nH]1 [5-Fluorouracil] + Nc1nc2[nH]cc(CCc3ccc(C(=O)N[C@@H](CCC(=O)O)C(=O)O)cc3)c2c(=O)[nH]1 [Pemetrexed] (partner 0.2 µM)
Summed up:
as §1

Compound in test [4]: O=c1[nH]cc(F)c(=O)[nH]1 [5-Fluorouracil] + COc1cc2c(Oc3ccc(NC(=O)C4(C(=O)Nc5ccc(F)cc5)CC4)cc3F)ccnc2cc1OCCCN1CCOCC1 [Foretinib] (partner 0.25 µM)
In outline: as §1

Here are results for 5 cell lines from the supplement of paper PMC10307832.

Consider LU99A, for which the relative viability in test [1] (first compound 0.02 µM) was found to be 0.575; in test [1] (first compound 0.2 µM), 0.655; in test [1] (first compound 0.6325 µM), 0.567; in test [1] (first compound 2 µM) it was 0.4; in test [2] (first compound 0.02 µM) it was 0.755; in test [2] (first compound 0.2 µM) it was 0.795. In addition, the relative viability in test [2] (first compound 0.6325 µM) was 0.686; in test [2] (first compound 2 µM), 0.563; in test [3] (first compound 0.02 µM), 0.185; in test [3] (first compound 0.2 µM) it was 0.177; in test [3] (first compound 0.6325 µM), 0.154; in test [3] (first compound 2 µM), 0.171. For the same cell line, the relative viability in test [4] (first compound 0.02 µM) is 0.752; in test [4] (first compound 0.2 µM), 0.851; in test [4] (first compound 0.6325 µM) it was 0.693; in test [4] (first compound 2 µM), 0.488.
For LXF-289, the relative viability came to 0.192 in test [1] (first compound 0.02 µM); 0.202 in test [1] (first compound 0.2 µM); 0.152 in test [1] (first compound 0.6325 µM); 0.154 in test [1] (first compound 2 µM); 0.881 in test [2] (first compound 0.02 µM); 0.625 in test [2] (first compound 0.2 µM). The relative viability in test [2] (first compound 0.6325 µM) stood at 0.387; in test [2] (first compound 2 µM), 0.283; in test [3] (first compound 0.02 µM) it was 0.807; in test [3] (first compound 0.2 µM) it was 0.704; in test [3] (first compound 0.6325 µM), 0.494; in test [3] (first compound 2 µM), 0.363. Further, the relative viability in test [4] (first compound 0.02 µM) stood at 0.917; in test [4] (first compound 0.2 µM), 0.757; in test [4] (first compound 0.6325 µM), 0.468; in test [4] (first compound 2 µM), 0.313.
In the case of NCI-H23, the relative viability stood at 0.789 in test [1] (first compound 0.02 µM); 0.991 in test [1] (first compound 0.2 µM); 0.475 in test [1] (first compound 0.6325 µM); 0.278 in test [1] (first compound 2 µM); 0.807 in test [2] (first compound 0.02 µM); 0.845 in test [2] (first compound 0.2 µM). Besides, the relative viability in test [2] (first compound 0.6325 µM) came out at 0.653; in test [2] (first compound 2 µM), 0.338; in test [3] (first compound 0.02 µM) it was 0.944; in test [3] (first compound 0.2 µM), 0.63; in test [3] (first compound 0.6325 µM), 0.408; in test [3] (first compound 2 µM), 0.337. Also, the relative viability in test [4] (first compound 0.02 µM) was 1.08; in test [4] (first compound 0.2 µM), 0.825; in test [4] (first compound 0.6325 µM) it was 0.52; in test [4] (first compound 2 µM) it was 0.431.
Turning to NCI-H322M, the relative viability amounted to 0.279 in test [1] (first compound 0.02 µM); 0.243 in test [1] (first compound 0.2 µM); 0.242 in test [1] (first compound 0.6325 µM); 0.234 in test [1] (first compound 2 µM); 1.29 in test [2] (first compound 0.02 µM); 1.07 in test [2] (first compound 0.2 µM). Further, the relative viability in test [2] (first compound 0.6325 µM) was found to be 0.853; in test [2] (first compound 2 µM), 0.693; in test [3] (first compound 0.02 µM), 0.602; in test [3] (first compound 0.2 µM), 0.598; in test [3] (first compound 0.6325 µM), 0.549; in test [3] (first compound 2 µM), 0.512. Further, the relative viability in test [4] (first compound 0.02 µM) was 0.976; in test [4] (first compound 0.2 µM), 0.84; in test [4] (first compound 0.6325 µM) it was 0.749; in test [4] (first compound 2 µM), 0.446.
Consider NCI-H358, for which the relative viability in test [1] (first compound 0.02 µM) was determined as 0.206; in test [1] (first compound 0.2 µM), 0.199; in test [1] (first compound 0.6325 µM) it was 0.2; in test [1] (first compound 2 µM), 0.161; in test [3] (first compound 0.02 µM), 0.177; in test [3] (first compound 0.2 µM), 0.182. For the same cell line, the relative viability in test [3] (first compound 0.6325 µM) was found to be 0.172; in test [3] (first compound 2 µM), 0.169; in test [4] (first compound 0.02 µM), 0.71; in test [4] (first compound 0.2 µM), 0.918; in test [4] (first compound 0.6325 µM) it was 0.657; in test [4] (first compound 2 µM) it was 0.308.
